1 compound from paper PMC6092189 (Nature structural & molecular biology, 2018) can be followed below.

In general, Kd refers to the free concentration of one partner at which half of the binding sites on the other are occupied at equilibrium, for simple one-to-one binding. Low readings indicate a tighter complex, high ones a looser complex.

The structures appear in SMILES notation.

The experiment addresses human β-cardiac myosin (Homo sapiens, UniProt P12883). Nature of the experiment: single-molecule harmonic force spectroscopy dose titration. The experiment is classed as binding.

Chain of human β-cardiac myosin (P12883 1-808): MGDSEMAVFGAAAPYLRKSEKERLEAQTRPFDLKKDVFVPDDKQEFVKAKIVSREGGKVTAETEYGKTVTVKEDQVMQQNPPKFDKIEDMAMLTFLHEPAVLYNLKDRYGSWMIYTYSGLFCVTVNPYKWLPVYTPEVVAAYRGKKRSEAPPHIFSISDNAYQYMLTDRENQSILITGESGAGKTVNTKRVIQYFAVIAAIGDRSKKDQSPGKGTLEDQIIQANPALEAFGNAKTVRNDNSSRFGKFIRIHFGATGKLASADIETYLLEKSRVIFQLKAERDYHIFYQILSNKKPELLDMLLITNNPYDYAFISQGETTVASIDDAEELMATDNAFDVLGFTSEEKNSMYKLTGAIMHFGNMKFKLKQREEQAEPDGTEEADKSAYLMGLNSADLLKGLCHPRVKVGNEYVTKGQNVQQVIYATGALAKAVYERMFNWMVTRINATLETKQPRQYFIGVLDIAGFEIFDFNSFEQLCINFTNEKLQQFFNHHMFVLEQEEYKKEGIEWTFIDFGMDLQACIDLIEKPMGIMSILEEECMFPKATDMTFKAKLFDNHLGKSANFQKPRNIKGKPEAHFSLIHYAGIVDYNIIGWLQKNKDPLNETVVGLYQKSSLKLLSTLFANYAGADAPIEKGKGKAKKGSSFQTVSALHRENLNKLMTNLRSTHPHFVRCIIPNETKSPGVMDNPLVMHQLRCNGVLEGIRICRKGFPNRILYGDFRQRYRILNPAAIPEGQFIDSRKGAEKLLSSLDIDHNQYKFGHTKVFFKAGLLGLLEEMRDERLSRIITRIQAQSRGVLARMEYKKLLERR
Chain of human β-cardiac myosin (P08590 2-195 partner): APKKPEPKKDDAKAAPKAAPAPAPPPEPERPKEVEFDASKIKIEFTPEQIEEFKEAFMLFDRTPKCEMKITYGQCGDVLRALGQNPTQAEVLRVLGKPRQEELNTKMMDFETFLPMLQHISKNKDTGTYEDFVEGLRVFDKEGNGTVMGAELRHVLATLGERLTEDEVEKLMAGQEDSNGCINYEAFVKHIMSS

For `COC(=O)N1CCN(Cc2cccc(NC(=O)Nc3ccc(C)nc3)c2F)CC1` [OM, omecamtiv mecarbil], the affinity, expressed as Kd, was 310 ± 50 nM.
